Test results taken from ChEMBL document CHEMBL1201862, “PubChem BioAssay data set” (2004).
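Exposure lasted 48 hours, with cells grown in 96-well plates and compounds tested at five concentrations. At the GI50, growth is halved.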 Calls of active or inactive are those of the source. No stated cut-off is given here; in the data, active = GI50 up to about 1.1 µM and inactive = higher.

Experiments:
Assay in all cases: NCI-60 cell line screen, 48 h
A549 = system: A549
ACHN = system: ACHN
COLO 205 = system: COLO 205
DMS-273 = system: DMS-273
HCT-116 = system: HCT-116
HCT-15 = system: HCT-15
HT-29 = system: HT-29
KM12 = system: KM12
NCI-H226 = system: NCI-H226
NCI-H23 = system: NCI-H23
SK-MEL-5 = system: SK-MEL-5
SK-OV-3 = system: SK-OV-3
SNB-19 = system: SNB-19
UACC-62 = system: UACC-62
UO-31 = system: UO-31
A498 = system: A498
SF-268 = system: SF-268
HOP-92 = system: HOP-92
DU-145 = system: DU-145
MDA-MB-231 = system: MDA-MB-231

| Compound | GI50 (A549) | GI50 (ACHN) | GI50 (COLO 205) | GI50 (DMS-273) | GI50 (HCT-116) | GI50 (HCT-15) | GI50 (HT-29) | GI50 (KM12) | GI50 (NCI-H226) | GI50 (NCI-H23) | GI50 (SK-MEL-5) | GI50 (SK-OV-3) | GI50 (SNB-19) | GI50 (UACC-62) | GI50 (UO-31) | GI50 (A498) | GI50 (SF-268) | GI50 (HOP-92) | GI50 (DU-145) | GI50 (MDA-MB-231) |
| --- | --- | --- | --- | --- | --- | --- | --- | --- | --- | --- | --- | --- | --- | --- | --- | --- | --- | --- | --- | --- |
| COC(=O)/C1=C/C2CC(/C=C(/c3ccccc3)C(=O)O1)C2 | 29.9 µM (inactive) | 26.3 µM (inactive) | 19.1 µM (inactive) | 21.5 µM (inactive) | 21.8 µM (inactive) | 18.8 µM | 26.9 µM (inactive) | 23.8 µM (inactive) | 20.4 µM (inactive) | 17 µM (inactive) | 17.7 µM (inactive) | 36.7 µM (inactive) | 35.4 µM (inactive) | 14.7 µM (inactive) | 32.9 µM (inactive) | – | – | – | – | – |
| COc1nc(=O)cc(N)n1C1OC(CO)C(O)C1O (stereo not drawn) | > 100 µM (inactive) | > 100 µM (inactive) | > 100 µM (inactive) | > 100 µM (inactive) | > 100 µM (inactive) | > 100 µM | > 100 µM (inactive) | > 100 µM (inactive) | > 100 µM (inactive) | > 100 µM (inactive) | > 100 µM (inactive) | > 100 µM (inactive) | > 100 µM (inactive) | > 100 µM (inactive) | > 100 µM (inactive) | > 100 µM (inactive) | > 100 µM (inactive) | – | – | – |
| CC(C)(C)CC(C)(C)c1cc2c(O)c(c1)Cc1cc(C(C)(C)CC(C)(C)C)cc(c1O)Cc1cc(C(C)(C)CC(C)(C)C)cc(c1O)Cc1cc(C(C)(C)CC(C)(C)C)cc(c1O)Cc1cc(C(C)(C)CC(C)(C)C)cc(c1O)Cc1cc(C(C)(C)CC(C)(C)C)cc(c1O)Cc1cc(C(C)(C)CC(C)(C)C)cc(c1O)Cc1cc(C(C)(C)CC(C)(C)C)cc(c1O)C2 | > 100 µM (inactive) | > 100 µM (inactive) | > 100 µM (inactive) | > 100 µM (inactive) | > 100 µM (inactive) | > 100 µM | > 100 µM (inactive) | > 100 µM (inactive) | – | > 100 µM (inactive) | > 100 µM (inactive) | – | > 100 µM (inactive) | > 100 µM (inactive) | > 100 µM (inactive) | – | > 100 µM (inactive) | > 100 µM (inactive) | – | – |
| N#C/C(=C/c1ccc([N+](=O)[O-])o1)c1ccccc1 | > 100 µM (inactive) | > 100 µM (inactive) | > 100 µM (inactive) | > 100 µM (inactive) | > 100 µM (inactive) | – | > 100 µM (inactive) | > 100 µM (inactive) | > 100 µM (inactive) | > 100 µM (inactive) | > 100 µM (inactive) | > 100 µM (inactive) | > 100 µM (inactive) | > 100 µM (inactive) | > 100 µM (inactive) | – | > 100 µM (inactive) | > 100 µM (inactive) | – | – |
| Cc1cc(NS(=O)(=O)c2ccc(Nc3c4ccccc4nc4c(C(=O)Nc5ccc(S(N)(=O)=O)cc5)cccc34)cc2)no1 | > 100 µM (inactive) | > 100 µM (inactive) | 34.8 µM (inactive) | > 100 µM (inactive) | 31.2 µM (inactive) | > 100 µM | > 100 µM (inactive) | 20.6 µM (inactive) | – | 47.5 µM (inactive) | 63.1 µM (inactive) | > 100 µM (inactive) | 32.7 µM (inactive) | 24.8 µM (inactive) | 80.9 µM (inactive) | > 100 µM (inactive) | 36.9 µM (inactive) | 33 µM (inactive) | – | – |
| CC1OC(n2cc(Cl)c(=O)[nH]c2=O)C=C(OC(=O)c2ccccc2)C1=O (stereo not drawn) | > 100 µM (inactive) | > 100 µM (inactive) | > 100 µM (inactive) | > 100 µM (inactive) | – | > 100 µM | > 100 µM (inactive) | – | – | > 100 µM (inactive) | > 100 µM (inactive) | > 100 µM (inactive) | > 100 µM (inactive) | > 100 µM (inactive) | > 100 µM (inactive) | – | – | > 100 µM (inactive) | – | – |
| S=P(c1ccccc1)(c1ccccc1)C1(C2(P(=S)(c3ccccc3)c3ccccc3)CC2)CC1 | > 100 µM (inactive) | > 100 µM (inactive) | > 100 µM (inactive) | > 100 µM (inactive) | > 100 µM (inactive) | > 100 µM | > 100 µM (inactive) | > 100 µM (inactive) | > 100 µM (inactive) | > 100 µM (inactive) | > 100 µM (inactive) | – | > 100 µM (inactive) | > 100 µM (inactive) | > 100 µM (inactive) | – | > 100 µM (inactive) | – | – | – |
| Cc1ccc(S(=O)(=O)N/N=C2/CC3CCC4CC2CC34)cc1 (stereo not drawn) | > 100 µM (inactive) | > 100 µM (inactive) | 55 µM (inactive) | – | > 100 µM (inactive) | > 100 µM | > 100 µM (inactive) | > 100 µM (inactive) | > 100 µM (inactive) | > 100 µM (inactive) | 84.7 µM (inactive) | > 100 µM (inactive) | > 100 µM (inactive) | > 100 µM (inactive) | 25.4 µM (inactive) | > 100 µM (inactive) | > 100 µM (inactive) | > 100 µM (inactive) | > 100 µM (inactive) | > 100 µM (inactive) |
| O=C(CSc1nc(-c2ccccc2)c(-c2ccccc2)[nH]1)N/N=C/c1ccc(O)cc1 | 24.2 µM (inactive) | 22.1 µM (inactive) | 19.5 µM (inactive) | 18.3 µM (inactive) | 22.5 µM (inactive) | – | 18.9 µM (inactive) | 22.6 µM (inactive) | 31.3 µM (inactive) | 3.76 µM (inactive) | – | 24.8 µM (inactive) | 32.5 µM (inactive) | 22.1 µM (inactive) | 28.1 µM (inactive) | – | 26.6 µM (inactive) | 22.8 µM (inactive) | – | – |
| CC(O)(C(=O)N(O)c1ccc(Cl)cc1)c1ccc(Cl)cc1 (stereo not drawn) | 26.4 µM (inactive) | 18.7 µM (inactive) | 18.1 µM (inactive) | – | 28.4 µM (inactive) | 19.2 µM | 31 µM (inactive) | 12.8 µM (inactive) | 40.6 µM (inactive) | 23.4 µM (inactive) | 18.7 µM (inactive) | 33.1 µM (inactive) | 48.2 µM (inactive) | 31.9 µM (inactive) | 26.1 µM (inactive) | 25.5 µM (inactive) | 23.7 µM (inactive) | 20.3 µM (inactive) | 34.4 µM (inactive) | 22.8 µM (inactive) |
| Cc1cc(S(=O)(=O)Nc2nnc3c4ccccc4cnn23)c(S)cc1Cl | 70.5 µM (inactive) | > 100 µM (inactive) | > 100 µM (inactive) | – | 58.2 µM (inactive) | > 58.6 µM | > 100 µM (inactive) | 31.7 µM (inactive) | 24.1 µM (inactive) | 63 µM (inactive) | > 81.5 µM (inactive) | 34.7 µM (inactive) | 26.5 µM (inactive) | 46.9 µM (inactive) | > 91.2 µM (inactive) | > 85.1 µM (inactive) | 39.9 µM (inactive) | > 49.9 µM (inactive) | 61.9 µM (inactive) | > 93.3 µM (inactive) |
| Cn1c(SCc2ccc([N+](=O)[O-])cc2)nnc1C12CC3CC(CC(C3)C1)C2 | > 10 µM (inactive) | > 10 µM (inactive) | > 10 µM (inactive) | – | > 10 µM (inactive) | > 10 µM | > 10 µM (inactive) | > 10 µM (inactive) | > 10 µM (inactive) | > 10 µM (inactive) | > 10 µM (inactive) | > 10 µM (inactive) | > 10 µM (inactive) | > 10 µM (inactive) | > 10 µM (inactive) | > 10 µM (inactive) | > 10 µM (inactive) | > 10 µM (inactive) | > 10 µM (inactive) | > 10 µM (inactive) |
| O=S(=O)(/C=C/C(=C/c1ccccc1)S(=O)(=O)c1ccccc1)c1ccccc1 | 2.13 µM (inactive) | 1.76 µM (inactive) | 2.16 µM (inactive) | 1.52 µM (inactive) | 1.72 µM (inactive) | 1.51 µM | 1.73 µM (inactive) | 2.16 µM (inactive) | – | 1.93 µM (inactive) | – | 1.44 µM (inactive) | 1.78 µM (inactive) | 2.16 µM (inactive) | 1.82 µM (inactive) | – | 1.91 µM (inactive) | – | – | – |
| CN(C)CCCSc1nc2ccccc2[nH]1 | > 100 µM (inactive) | > 100 µM (inactive) | > 100 µM (inactive) | – | > 100 µM (inactive) | > 100 µM | > 100 µM (inactive) | > 100 µM (inactive) | > 100 µM (inactive) | > 100 µM (inactive) | > 100 µM (inactive) | > 100 µM (inactive) | > 100 µM (inactive) | > 100 µM (inactive) | > 100 µM (inactive) | > 100 µM (inactive) | > 100 µM (inactive) | > 100 µM (inactive) | > 100 µM (inactive) | > 100 µM (inactive) |
| Cc1cc(NS(=O)(=O)c2ccc(NC(=O)c3cccc4c(N)c5ccccc5nc34)cc2)no1 | > 100 µM (inactive) | 20 µM (inactive) | 22.6 µM (inactive) | 19.2 µM (inactive) | 14.5 µM (inactive) | 33 µM | 27.9 µM (inactive) | 18.9 µM (inactive) | 17.7 µM (inactive) | 21.8 µM (inactive) | > 10 µM (inactive) | 32.5 µM (inactive) | 17.4 µM (inactive) | 28 µM (inactive) | 33.3 µM (inactive) | 19.4 µM (inactive) | 21 µM (inactive) | – | – | – |
| O=C1c2cccc([N+](=O)[O-])c2C(=O)N1c1ncn[nH]1 | > 100 µM (inactive) | > 100 µM (inactive) | > 100 µM (inactive) | – | > 100 µM (inactive) | > 100 µM | > 100 µM (inactive) | > 100 µM (inactive) | 81.8 µM (inactive) | > 100 µM (inactive) | > 100 µM (inactive) | 32.7 µM (inactive) | 29.7 µM (inactive) | > 100 µM (inactive) | > 100 µM (inactive) | 53 µM (inactive) | 37 µM (inactive) | 21.4 µM (inactive) | > 100 µM (inactive) | 56.6 µM (inactive) |
